Patent publication US20250281480A1, “PHARMACEUTICAL DRY POWDER INHALATION FORMULATION” (Bayer Aktiengesellschaft, priority 2021, published 2025)

What was measured:
[1] = tested on: patients with PAH or CTEPH; test: Phase 1b, inhaled single doses in patients with PAH or CTEPH: pulmonary vascular resistance (PVR), mPAP by right heart catheterization; assay type: in vivo, human
Protocol: Patients with PAH or CTEPH were treated in a clinical phase 1b study with escalating orally inhaled single doses* of 240 μg (2 capsules of 120 μg), 480 μg, 1000 μg, 2000 (2 capsules of 1000 μg) or […] (4 capsules of 1000 μg) of a dry powder of example 4 (see under C-1, e.g. tables 17 and 20), inserted into a handheld inhalation device, inhaled by deep inhalative breath into the deep parts of the lung. (*single dose means the administration of one dosage form/capsule as well as administration of two or more dosage forms/capsules simultaneously or consecutively within a short time period). The included patients had no background treatment with standard of care (SoC) medication for PAH or CTEPH (such as endothelin antagonists, prostanoids, phosphodiesterase type 5 inhibitor or soluble guanylate cyclase stimulators). Patients in this study underwent invasive right heart catheterization as medically indicated routine diagnostic. Primary objective of the study was to investigate the peak percent reduction from baseline in PVR. Patients had to have a baseline pulmonary artery pressure (mPAP) of ≥25 mmHg and a PVR of ≥400 dyn·sec·cm^−5 (5 Wood Units) and were not to show vaso-responsiveness to initial iNO inhalation testing to be included in the per protocol analysis. Plasma concentrations (pharmacokinetics) of the administered drug at several time points after administration were measured and safety and tolerability was assessed.
The study is divided into two parts, Part A and Part B. In Part A escalating aforementioned single doses were administered to patients without background treatment with standard of care (SoC) medication for PAH or CTEPH (such as endothelin antagonists, prostanoids, phosphodiesterase type 5 inhibitor or soluble guanylate cyclase stimulators). In Part B, after finalization of Part A, a selected dose from Part A will be tested in further patients without background SoC treatment (group 1) and additionally in patients on monotherapy with SoC (group 2) and on dual combination therapy with SoC (group 3).
The PVR is a derived parameter from parameters directly measured during the right heart catheterization procedure. The direct parameters included in the calculation are: mean pulmonary arterial pressure [mmHg](mPAP), pulmonary capillary wedge pressure [mmHg](PCWP), and cardiac output [1/min](CO). The PVR is calculated according to the formula: PVR [dyn*sec*cm^−5]=80*(mPAP−PCWP)/CO.

[2] = Micronization of monohydrate II and monohydrate I (spiral jet mill): solid form after micronization; assay type: physicochemical; conditions: example 8e: 100 mm spiral jet mill
From the text: Generally no amorphization even partial nor form conversion should happen during the necessary micronization step.
The corresponding batches (examples 8a-8d) were micronized using a 50 mm spiral jet mill and pressurized nitrogen with the following parameters (see table 16b).
The corresponding batches were micronized using a 100 mm spiral jet mill and pressurized nitrogen with the following parameters (see table 16c).

[3] = Deposited lung dose with absorbing filters and prediction of human dose (PAH minipig model); assay type: in vivo
Protocol: The anesthetized thromboxane A2 challenged PAH-minipig model (see experimental part E-1) is considered to be the most relevant and sensitive model for the prediction of the human minimal effective and effective doses (MED, ED). To determine effective LDs, experiments were repeated with the difference that absorbing filters were attached at the end of the tubes to determine the deposited lung dose. […] Assuming a minimal effective ND of 3 μg/kg (5% reduction in PAP) the minimal effective deposited LD is considered as 0.15 μg/kg (see FIG. 1).
The nominal doses of 3, 10, 30 and 100 μg/kg of the minipig model were multiplied by the filter deposition factor of 5% resulting in 0.15, 0.5, 1.5 and 5 μg/kg lung deposited doses in the minipig. These values were multiplied by 60 kg to achieve the lung dose in humans. Thus, the FPD reflecting the PAP reduction for a 60 kg human are calculated to be 9, 30, 90 and 300 μg.
Thus, via a direct up-scaling from minipig, the predictive MED (5% PAP reduction) for a human based on a 60 kg body weight is calculated to be 9 μg LDD, not considering protein binding within the respiratory tract. As a surrogate for unbound concentrations, which are the likely active concentrations in the lung, we considered respective differences in fractions unbound in plasma of minipig and human. This consideration results in a minimum effective lung dose (LD) for a 60 kg participant of 41 μg LDD for the assumed 5% reduction on PAP. Consequently, the predictive minimal human effective dose is in the range from 9 μg LDD to 41 μg LDD based on a 60 kg body weight (see FIG. 2).
In order to generate a human dose estimate, experiments in the PAH minipig model for comparative example 11 were repeated with the difference that absorbing filters were attached at the end of the tubes to […] determine the deposited lung dose. […] The arithmetic mean of the aerosol fraction deposited on the filters is 5% based on all results of the filter experiments, resulting in relative lung deposited doses of about 0.15 μg/kg (3 μg/kg nominal dose), 0.5 μg/kg (10 μg/kg nominal dose), 1.5 μg/kg (30 μg/kg nominal dose) and 5 μg/kg (100 μg/kg nominal dose). Assuming a minimal effective nominal dose of 3 μg/kg for a 5% reduction in PAP and a mean nebulization efficiency of 5%, the minimal effective deposited lung dose is considered as 0.15 μg/kg based on the PAH minipig model. Therefore, for a human patient of 60 kg body weight a minimal effective lung deposited dose of 9-41 μg, depending on whether or not an effect of different protein binding (see table 37) is postulated. Considering 100 μg/kg as effective dose in the minipig model, 300-1370 μg lung deposited dose is postulated as effective dose, again depending on the consideration of different interspecies protein binding.

[4] = tested on: conscious hypoxia challenged dog; test: Conscious hypoxia challenged dog model, duration of action (PAP reduction); assay type: in vivo
plasma proteins = test: Protein binding via Transil assay, rat plasma; assay type: in vitro ADME
From the text: The distribution of a test substance between Transil® (phosphatidylcholine lipid bilayers immobilized on silica beads) and plasma is a characteristic feature of any pharmaceutical compound and is dependent on its extent of binding to plasma proteins. By comparing the distribution between Transil® and buffer with the distribution between Transil® and plasma of any species of interest, the unbound fraction in the plasma of the respective animal species can be calculated in vitro. The respective plasma and buffer concentrations were determined via a radioactivity analysis. A detailed description of the method and its validation was published by Schuhmacher et al. (2).

[5] = tested on: unilateral ventilated minipig; test: Unilateral ventilated minipig model as a proxy of VQ-mismatch; assay type: in vivo; conditions: inhaled application

SMILES: O=C(O)c1ccc(CCN(CCc2ccccc2OCc2ccc(-c3ccc(C(F)(F)F)cc3)cc2Cl)[C@H]2CCCc3nc(C(=O)O)ccc32)cc1 [Example 4, (5S)—{[2-(4-Carboxyphenyl)ethyl][2-(2-{[3-chloro-4′-(trifluoromethyl)biphenyl-4-yl]methoxy}phenyl)-ethyl]amino}-5,6,7,8-tetrahydroquinoline-2-carboxylic Acid as Monohydrate I]
- mean pulmonary arterial pressure (mPAP), mean ± SD ([1]; 1000 μg inhaled single dose, N = 4, 0 D 03 H 00 M): 34.0 ± 11.6 mmHg
- enduring mean change of PVR from baseline ([1]; 2000 μg group): approximately −30%
- enduring mean change of PVR from baseline ([1]; 4000 μg group): approximately −30%
- effect sustained with no decrease in response until end of measurement period ([1]; PVR after single inhaled dose): ≥ 3 h
- tolerability ([1]; including the highest dose of 4000 μg): good tolerability
- stability under micronization conditions [2]: stable

SMILES: O=C(O)c1ccc(CCN(CCc2ccccc2OCc2ccc(-c3ccc(C(F)(F)F)cc3)cc2Cl)[C@H]2CCCc3nc(C(=O)O)ccc32)cc1 [Comparative example 11, (5S)-5-{[2-(4-carboxyphenyl)ethyl][2-(2-{[3-chloro-4′-(trifluoromethyl)[biphenyl]-4-yl]methoxy}phenyl)ethyl]amino}-5,6,7,8-tetrahydroquinoline-2-carboxylic Acid]
- Relative lung deposited dose in minipig ([3]; 3 μg/kg nominal dose): 0.15 µg/kg
- Relative lung deposited dose in minipig ([3]; 10 μg/kg nominal dose): 0.50 µg/kg
- Relative lung deposited dose in minipig ([3]; 30 μg/kg nominal dose): 1.5 µg/kg
- Relative lung deposited dose in minipig ([3]; 100 μg/kg nominal dose): 5.0 µg/kg
- duration of effect (PAP reduction) [4]: up to 17 hrs
- fraction unbound, lower than comparative example 1 (plasma proteins): 1.6 times lower
- effect on PAP and oxygenation [5]: lowered PAP without negative effects on oxygenation
